Data published in patent US7772241B2, “Variolin derivatives and their use as antitumor agents” (Pharma Mar S.A., priority 2001, dated 2010).
Read-outs that look alike come from different tables or passages of the source. Each block holds one molecule with its values, some of them ahead of it.

Experiments:
HT-29 = experiment: Inhibition of cells growth by colorimetric (SRB) assay, HT-29
Procedure, shortened: (§1)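 Human tumour cells seeded at 5×10^3/well in RPMI 1640 10% FBS, attached 18 h, then exposed 48 h to samples at 10 to 10^−8 μg/ml in DMSO/EtOH/PBS (0.5:0.5:99). Growth read by SRB staining after TCA fixation, OD 490 nm, triplicate wells; GI, TGI and LC derived.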

A-549 = experiment: Inhibition of cells growth by colorimetric (SRB) assay, A-549
Procedure, shortened: as §1

HMEC1 = experiment: Inhibition of cells growth by colorimetric (SRB) assay, HMEC1; settings: SRB assay, 48 hours exposure
Text: (§2) The finality of these assays is to interrupt the growth of a “in vitro” tumor cell culture by means a continued exhibition of the cells to the sample to be testing.
(§3) This form of the assay employs 96 well cell culture microplates of 9 mm diameter (Faircloth, 1988; Mosmann, 1983). Most of the cell lines are obtained from American Type Culture Collection (ATCC) derived from different human cancer types.
(§4) Cells are maintained in RPMI 1640 10% FBS, supplemented with 0.1 g/l penicillin and 0.1 g/l streptomycin sulphate and then incubated at 37° C., 5% CO2 and 98% humidity. For the experiments, cells were harvested from subconfluent cultures using trypsin and resuspended in fresh medium before plating.
(§5) Cells are seeded in 96 well microtiter plates, at 5×10^3 cells per well in aliquots of 195 μl medium, and they are allowed to attach to the plate surface by growing in drug free medium for 18 hours. Afterward, samples are added in aliquots of 5 μl in a ranging from 10 to 10^−8 μg/ml, dissolved in DMSO/EtOH/PBS (0.5:0.5:99). After 48 hours exposure, the antitumor effect are measured by the SRB methodology: cells are fixed by adding 50 μl of cold 50% (wt/vol) trichloroacetic acid (TCA) and incubating for 60 minutes at 4° C. Plates are washed with deionized water and dried. One hundred μl of SRB solution (0.4% wt/vol in 1% acetic acid) is added to each microtiter well and incubated for 10 minutes at room temperature. Unbound SRB is removed by washing with 1% acetic acid. Plates are air dried and bound stain is solubilized with Tris buffer. Optical densities are read on a automated spectrophotometric plate reader at a single wavelength of 490 nm.
(§6) The values for mean +/−SD of data from triplicate wells are calculated. Some parameters for cellular responses can be calculated: GI=growth inhibition, TGI=total growth inhibition (cytostatic effect) and LC=cell killing (cytotoxic effect).

PANC-1 = experiment: Inhibition of cells growth by colorimetric (SRB) assay, PANC-1; settings: for CC50: read-out: LC50 PANC-1, SRB assay, 48 hours exposure
Procedure, shortened: as §1

LoVo-Dox = experiment: Inhibition of cells growth by colorimetric (SRB) assay, LoVo-Dox; settings: for GI50 / CC50: Homo sapiens, 48 h; for GI50: read-out: GI50 LOVO-DOX, SRB assay, 48 hours exposure; for CC50: read-out: LC50 LOVO-DOX, SRB assay, 48 hours exposure; for TGI LOVO-DOX: SRB assay, 48 hours exposure
Procedure, shortened: as §1

SK-MEL-28 = experiment: Inhibition of cells growth by colorimetric (SRB) assay, SK-MEL-28; settings: for CC50: read-out: LC50 MEL-28, SRB assay, 48 hours exposure
Procedure, shortened: as §1

SK-BR-3 = experiment: Inhibition of cells growth by colorimetric (SRB) assay, SK-BR-3; settings: for CC50: read-out: LC50 SK-BR-3, SRB assay, 48 hours exposure
Text: as §2, §3, §4, §5, §6

DU-145 = experiment: Inhibition of cells growth by colorimetric (SRB) assay, DU-145; settings: for CC50: read-out: LC50 DU-145, SRB assay, 48 hours exposure
Procedure, shortened: as §1

SK-OV-3 = experiment: Inhibition of cells growth by colorimetric (SRB) assay, SK-OV-3; settings: for CC50: read-out: LC50 SKOV-3, SRB assay, 48 hours exposure
Procedure, shortened: as §1

K-562 = experiment: Inhibition of cells growth by colorimetric (SRB) assay, K-562; settings: for GI50 / CC50: Homo sapiens, K562, 48 h; for GI50: read-out: GI50 K-562, SRB assay, 48 hours exposure; for CC50: read-out: LC50 K-562, SRB assay, 48 hours exposure; for TGI K-562: SRB assay, 48 hours exposure
Procedure, shortened: as §1

IGROV-1 = experiment: Inhibition of cells growth by colorimetric (SRB) assay, IGROV-1
Procedure, shortened: as §1

IGROV-ET = experiment: Inhibition of cells growth by colorimetric (SRB) assay, IGROV-ET; settings: for CC50: read-out: LC50 IGROV-ET, SRB assay, 48 hours exposure
Procedure, shortened: as §1

LoVo = experiment: Inhibition of cells growth by colorimetric (SRB) assay, LoVo; settings: for CC50: read-out: LC50 LOVO, SRB assay, 48 hours exposure
Procedure, shortened: as §1

LNCaP = experiment: Inhibition of cells growth by colorimetric (SRB) assay, LNCaP
Procedure, shortened: as §1

[1] = read-out: GI50 A-549, SRB assay, 48 hours exposure
[2] = Homo sapiens, HT-29, 48 h, read-out: GI50 HT-29, SRB assay, 48 hours exposure
[3] = Homo sapiens, HT-29, 48 h, read-out: LC50 HT-29, SRB assay, 48 hours exposure
[4] = Homo sapiens, A549, 48 h, read-out: LC50 A-549, SRB assay, 48 hours exposure

GI50 (HT-29; read-out: HT-29 GI50, SRB assay, 48 hours exposure): 34.4 µM | GI50 (A-549; [1]): 34.4 µM
Compound: COc1cccc(-c2c3cccnc3n3c(N)nccc23)c1 [Compound 62]
HT-29 TGI (HT-29; SRB assay, 48 hours exposure): 3.44E−05 | CC50 (HT-29; read-out: HT-29 LC50, SRB assay, 48 hours exposure): 34.4 µM | A-549 TGI (A-549; SRB assay, 48 hours exposure): 3.44E−05 | CC50 (A-549; read-out: A-549 LC50, SRB assay, 48 hours exposure): 34.4 µM | TGI H-MEC-1 (HMEC1; in M (unit assumed)): 3.44E−05 | GI50 (HMEC1; read-out: GI50 H-MEC-1): 34.4 µM | CC50 (HMEC1; read-out: LC50 H-MEC-1): 34.4 µM

Compound: Nc1nccc2c(-c3ccncn3)c3c(O)ccnc3n12 [Compound 100]
CC50 (PANC-1; Homo sapiens, PANC-1, 48 h): ≥ 25.5 µM | TGI PANC-1 (PANC-1; SRB assay, 48 hours exposure): 2.55E−05 | GI50 (PANC-1; read-out: GI50 PANC-1, SRB assay, 48 hours exposure): 4.92 µM | GI50 (LoVo-Dox): 1.18 µM | CC50 (LoVo-Dox): ≥ 25.5 µM | TGI LOVO-DOX (LoVo-Dox): 1.30E−05 | CC50 (SK-MEL-28; Homo sapiens, SK-MEL-28, 48 h): ≥ 25.5 µM | TGI MEL-28 (SK-MEL-28; SRB assay, 48 hours exposure): 8.08E−06 | GI50 (SK-MEL-28; read-out: GI50 MEL-28, SRB assay, 48 hours exposure): 1.32 µM | CC50 (SK-BR-3; Homo sapiens, SK-BR-3, 48 h): 10.6 µM | TGI SK-BR-3 (SK-BR-3; SRB assay, 48 hours exposure): 1.52E−06 | GI50 (SK-BR-3; read-out: GI50 SK-BR-3, SRB assay, 48 hours exposure): 0.464 µM | CC50 (DU-145; Homo sapiens, DU-145, 48 h): ≥ 25.5 µM | TGI DU-145 (DU-145; SRB assay, 48 hours exposure): 5.25E−06 | GI50 (DU-145; read-out: GI50 DU-145, SRB assay, 48 hours exposure): 0.739 µM | CC50 (SK-OV-3; Homo sapiens, SK-OV-3, 48 h): ≥ 25.5 µM | TGI SKOV-3 (SK-OV-3; SRB assay, 48 hours exposure): 9.84E−06 | GI50 (SK-OV-3; read-out: GI50 SKOV-3, SRB assay, 48 hours exposure): 1.74 µM | GI50 (K-562): 6.78 µM | CC50 (K-562): ≥ 25.5 µM | TGI K-562 (K-562): 1.49E−05 | GI50 (HT-29; [2]): 14.9 µM | CC50 (HT-29; [3]): ≥ 25.5 µM | TGI HT-29 (HT-29; SRB assay, 48 hours exposure): 2.55E−05 | TGI IGROV (IGROV-1; SRB assay, 48 hours exposure): 4.69E−06 | GI50 (IGROV-1; read-out: GI50 IGROV, SRB assay, 48 hours exposure): 1.4 µM | CC50 (IGROV-1; read-out: LC50 IGROV, SRB assay, 48 hours exposure): 13.2 µM | CC50 (IGROV-ET; Homo sapiens, 48 h): 22.9 µM | TGI IGROV-ET (IGROV-ET; SRB assay, 48 hours exposure): 2.33E−06 | GI50 (IGROV-ET; read-out: GI50 IGROV-ET, SRB assay, 48 hours exposure): 0.683 µM | CC50 (LoVo; Homo sapiens, LoVo, 48 h): ≥ 25.5 µM | TGI LOVO (LoVo; SRB assay, 48 hours exposure): 5.12E−06 | GI50 (LoVo; read-out: GI50 LOVO, SRB assay, 48 hours exposure): 0.877 µM | CC50 (A-549; [4]): ≥ 25.5 µM | TGI A-549 (A-549; SRB assay, 48 hours exposure): 2.63E−06 | GI50 (A-549; [1]): 0.678 µM | TGI LN-caP (LNCaP; SRB assay, 48 hours exposure): 3.29E−06 | GI50 (LNCaP; read-out: GI50 LN-caP, SRB assay, 48 hours exposure): 1.05 µM | CC50 (LNCaP; read-out: LC50 LN-caP, SRB assay, 48 hours exposure): 10.9 µM

Compound: COc1nccc(-c2c3c(O)ccnc3n3c(N)nccc23)n1 [Compound 105]
GI50 (PANC-1; Homo sapiens, PANC-1, 48 h, read-out: GI50 PANC-1, SRB assay, 48 hours exposure): 11.8 µM | CC50 (PANC-1; Homo sapiens, PANC-1, 48 h): 32.4 µM | TGI PANC-1 (PANC-1; SRB assay, 48 hours exposure): 3.24E−05 | GI50 (LoVo-Dox): 21.9 µM | CC50 (LoVo-Dox): 32.4 µM | TGI LOVO-DOX (LoVo-Dox): 3.24E−05 | GI50 (SK-MEL-28; Homo sapiens, SK-MEL-28, 48 h, read-out: GI50 MEL-28, SRB assay, 48 hours exposure): 13.8 µM | CC50 (SK-MEL-28; Homo sapiens, SK-MEL-28, 48 h): 32.4 µM | TGI MEL-28 (SK-MEL-28; SRB assay, 48 hours exposure): 3.24E−05 | GI50 (SK-BR-3; Homo sapiens, SK-BR-3, 48 h, read-out: GI50 SK-BR-3, SRB assay, 48 hours exposure): 2.42 µM | CC50 (SK-BR-3; Homo sapiens, SK-BR-3, 48 h): 32.4 µM | TGI SK-BR-3 (SK-BR-3; SRB assay, 48 hours exposure): 1.26E−05 | GI50 (DU-145; Homo sapiens, DU-145, 48 h, read-out: GI50 DU-145, SRB assay, 48 hours exposure): 14.2 µM | CC50 (DU-145; Homo sapiens, DU-145, 48 h): 32.4 µM | TGI DU-145 (DU-145; SRB assay, 48 hours exposure): 3.24E−05 | GI50 (SK-OV-3; Homo sapiens, SK-OV-3, 48 h, read-out: GI50 SKOV-3, SRB assay, 48 hours exposure): 8.14 µM | CC50 (SK-OV-3; Homo sapiens, SK-OV-3, 48 h): 32.4 µM | TGI SKOV-3 (SK-OV-3; SRB assay, 48 hours exposure): 2.91E−05 | GI50 (K-562): 12.8 µM | CC50 (K-562): 32.4 µM | TGI K-562 (K-562): 2.93E−05 | GI50 (HT-29; [2]): 32.4 µM | CC50 (HT-29; [3]): 32.4 µM | TGI HT-29 (HT-29; SRB assay, 48 hours exposure): 3.24E−05 | GI50 (IGROV-1; Homo sapiens, IGROV-1, 48 h, read-out: GI50 IGROV, SRB assay, 48 hours exposure): 6.26 µM | CC50 (IGROV-1; Homo sapiens, IGROV-1, 48 h, read-out: LC50 IGROV, SRB assay, 48 hours exposure): 27.5 µM | TGI IGROV (IGROV-1; SRB assay, 48 hours exposure): 1.31E−05 | GI50 (IGROV-ET; Homo sapiens, 48 h, read-out: GI50 IGROV-ET, SRB assay, 48 hours exposure): 8.17 µM | CC50 (IGROV-ET; Homo sapiens, 48 h): 32.4 µM | TGI IGROV-ET (IGROV-ET; SRB assay, 48 hours exposure): 2.23E−05 | GI50 (LoVo; Homo sapiens, LoVo, 48 h, read-out: GI50 LOVO, SRB assay, 48 hours exposure): 14.3 µM | CC50 (LoVo; Homo sapiens, LoVo, 48 h): 32.4 µM | TGI LOVO (LoVo; SRB assay, 48 hours exposure): 3.24E−05 | GI50 (A-549; Homo sapiens, A549, 48 h, read-out: GI50 A-549, SRB assay, 48 hours exposure): 7.49 µM | CC50 (A-549; [4]): 32.4 µM | TGI A-549 (A-549; SRB assay, 48 hours exposure): 3.24E−05 | GI50 (LNCaP; Homo sapiens, LNCaP, 48 h, read-out: GI50 LN-caP, SRB assay, 48 hours exposure): 5.48 µM | CC50 (LNCaP; Homo sapiens, LNCaP, 48 h, read-out: LC50 LN-caP, SRB assay, 48 hours exposure): 32.4 µM | TGI LN-caP (LNCaP; SRB assay, 48 hours exposure): 1.75E−05
